From ChEMBL document CHEMBL6153097, “Design, synthesis, and biological evaluation of Flavokavain B derivatives as potent TRF2 inhibitors for the treatment of Osteosarcoma” (Eur J Med Chem, 2025)
Activity calls are given as the source filed them. The calls are words filed in the database; no cut-off is given here.

Tests used:
MG-63 [1] = assay: Induction of DNA damage response in human MG-63 cells assessed as telomere dysfunction by measuring telomere length shortening at 2 to 4 uM by Immunofluorescence based FISH assay; type: functional, cell-based; settings: dose 2-4 µM
[2] = Acute toxicity in mouse assessed as change in weight of liver at 30 to 90 mg/kg, po single dose measured for 7 days; type: organism-based; settings: in vivo, 168 h, dose 30-90 mg/kg, time 7 day
MG-63 [3] = assay: Antitumor activity against human MG-63 cells xenografted in female BALB/c mouse model assessed as upregulation of gamma-H2AX in tumor treated via oral gavage administered once a day for 3 weeks by IHC analysis; type: functional, cell-based; settings: dose 10-60 mg/kg
[4] = Acute toxicity in mouse assessed as creatinine (Cr) level in serum at 30 to 90 mg/kg, po single dose measured for 7 days; type: organism-based; settings: in vivo, 168 h, dose 30-90 mg/kg, time 7 day
[5] = Acute toxicity in mouse assessed as change in weight of lung at 30 to 90 mg/kg, po single dose measured for 7 days; type: organism-based; settings: in vivo, 168 h, dose 30-90 mg/kg, time 7 day
[6] = Acute toxicity in mouse assessed as change in weight of kidney at 30 to 90 mg/kg, po single dose measured for 7 days; type: organism-based; settings: in vivo, 168 h, dose 30-90 mg/kg, time 7 day
[7] = molecular target: T1, Telomeric repeat-binding factor 2 (Homo sapiens) (UniProt Q15554); assay: Induction of thermal stabilization of TRF2 TRFH domain in human MG-63 cells at 46 to 55 degC incubated for 4 hrs by cellular thermal shift assay (CESTA) based Western blot analysis; type: cell-based
T1 sequence (whole entry): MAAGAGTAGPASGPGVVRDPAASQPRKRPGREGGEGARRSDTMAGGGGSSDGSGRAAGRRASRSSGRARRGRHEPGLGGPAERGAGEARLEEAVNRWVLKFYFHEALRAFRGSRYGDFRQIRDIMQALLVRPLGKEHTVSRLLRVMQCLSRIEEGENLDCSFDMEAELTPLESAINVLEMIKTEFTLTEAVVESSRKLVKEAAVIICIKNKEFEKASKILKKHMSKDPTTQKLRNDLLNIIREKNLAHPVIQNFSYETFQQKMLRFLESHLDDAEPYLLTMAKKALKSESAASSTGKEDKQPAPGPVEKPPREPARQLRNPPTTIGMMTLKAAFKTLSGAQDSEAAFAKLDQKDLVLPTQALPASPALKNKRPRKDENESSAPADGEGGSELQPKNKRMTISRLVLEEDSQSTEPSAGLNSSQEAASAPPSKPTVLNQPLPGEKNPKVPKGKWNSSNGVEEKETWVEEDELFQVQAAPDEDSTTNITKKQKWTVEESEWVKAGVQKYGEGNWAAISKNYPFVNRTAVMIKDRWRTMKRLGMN

U2OS [8] = assay: Induction of apoptosis in human U2OS cells assessed as necrotic cells at 4 uM measured after 48 hrs annexin-V and propidium iodide staining based flow cytometry analysis (reference value: 2.46%); type: functional
U2OS [9] = assay: Induction of DNA damage response in human U2OS cells assessed as telomere dysfunction by measuring telomere length shortening at 2 to 4 uM by Immunofluorescence based FISH assay; type: functional, cell-based; settings: dose 2-4 µM
[10] = Toxicity in female BALB/c mouse model xenografted with human MG-63 cells assessed as drug tolerance at 10 to 60 mg/kg, via oral gavage administered once a day for 3 weeks; type: organism-based; settings: in vivo, 504 h, dose 10-60 mg/kg
MG-63 [11] = assay: Induction of apoptosis in human MG-63 cells assessed as late apoptotic cells at 4 uM measured after 48 hrs annexin-V and propidium iodide staining based flow cytometry analysis (reference value: 7.71%); type: functional
[12] = Acute toxicity in mouse assessed as alanine aminotransferase level (ALT) level in serum at 30 to 90 mg/kg, po single dose measured for 7 days; type: organism-based; settings: in vivo, 168 h, dose 30-90 mg/kg, time 7 day
U2OS [13] = assay: Downregulation of TRF expression levels in human U2OS cells measured after 48 hrs by Western blot analysis; type: functional, cell-based; settings: dose 2-4 µM
MG-63 [14] = assay: Antitumor activity against human MG-63 cells xenografted in female BALB/c mouse model assessed as incomplete nuclei appearance in tumor tissue treated via oral gavage administered once a day for 3 weeks by HE staining analysis; type: functional, cell-based; settings: dose 10-60 mg/kg
MG-63 [15] = assay: Induction of DNA damage response in human MG-63 cells assessed as reduction in TRF2 expression by measuring accumulation of telomere-free ends at 2 to 4 uM by FITC/DAPI based Quantitative FISH (Q-FISH) assay; type: functional, cell-based; settings: dose 2-4 µM
MG-63 [16] = assay: Antitumor activity against human MG-63 cells xenografted in female BALB/c mouse model assessed as downregulation of TRF2 in tumor treated via oral gavage administered once a day for 3 weeks by IHC analysis; type: functional, cell-based; settings: dose 10-60 mg/kg
MG-63 [17] = assay: Induction of DNA damage in human MG-63 cells assessed as increase in telomere dysfunction-foci at 4 uM by Immunofluorescence based FISH assay; type: functional, cell-based
U2OS [18] = assay: Induction of apoptosis in human U2OS cells assessed as viable cells at 4 uM measured after 48 hrs annexin-V and propidium iodide staining based flow cytometry analysis (reference value: 89.2%); type: functional; settings: read-out: Activity
MG-63 [19] = assay: Antitumor activity against human MG-63 cells xenografted in female BALB/c mouse model assessed as reduction in Ki67 level in tumor treated via oral gavage administered once a day for 3 weeks by IHC analysis; type: functional, cell-based; settings: dose 10-60 mg/kg
U2OS [20] = assay: Induction of apoptosis in human U2OS cells assessed as viable cells at 2 uM measured after 48 hrs annexin-V and propidium iodide staining based flow cytometry analysis (reference value: 89.2%); type: functional; settings: read-out: Activity
U2OS [21] = assay: Induction of apoptosis in human U2OS cells assessed as early apoptotic cells at 4 uM measured after 48 hrs annexin-V and propidium iodide staining based flow cytometry analysis (reference value: 2.38%); type: functional

## COc1cc(OC)c(C(=O)/C=C/c2cccc(Br)c2)c(OC)c1
MG-63 [1]
  Activity: Dose-dependent-effect
[2]
  Activity: Non-toxic
MG-63 [3]
  Activity: Dose-dependent-effect; Compound Showed Significantly Stronger Effect Than Ar And Fkb04
[4]
  Activity: Non-toxic
[5]
  Activity: Non-toxic
[6]
  Activity: Non-toxic
[7]
  Activity: Active
U2OS [8]
  Activity: 0.523%
U2OS [9]
  Activity: Dose-dependent-effect
[10]
  Activity: Non-toxic
MG-63 [11]
  Activity: 61.9%
[12]
  Activity: Non-toxic
U2OS [13]
  Activity: Dose-dependent-effect
MG-63 [14]
  Activity: Dose-dependent-effect
MG-63 [15]
  Activity: Active
MG-63 [16]
  Activity: Dose-dependent-effect
MG-63 [17]
  Activity: Active
U2OS [18]
  viability at 4 µM: 52.2%
MG-63 [19]
  Activity: Dose-dependent-effect; Compound Showed Significantly Stronger Effect Than Ar And Fkb04
U2OS [20]
  viability at 2 µM: 67.7%
U2OS [21]
  Activity: 31%
